Source: patent US9969742B2, “Imidazotriazinone compounds” (Ironwood Pharmaceuticals, Inc., priority 2012, dated 2018)
Where two headings read alike, the source gives them in different places.

Key:
Format in all cases: biochemical
[1] = target: T1, PDE1B (Homo sapiens, UniProt Q01064); experiment: Phosphodiesterase enzyme screening assay, PDE1B
T1 construct: purchased Reaction Biology Corporation, Malvern, Pa
How it was run: (§1)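 Human PDE isoforms were incubated 1 h at room temperature with 4.0 μM fluorescent cGMP substrate in 100 mM HEPES pH 7.5, 5 mM MgCl2, 1 mM DTT, 0.003% Brij. EDTA stop buffer ended reactions, and substrate and 5′-GMP product were separated by microfluidic electrophoretic mobility shift with laser-induced fluorescence. Inhibition was calculated against control wells.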

[2] = target: T2, PDE1A (Homo sapiens, UniProt P54750); experiment: Phosphodiesterase enzyme screening assay, PDE1A
T2 construct: purchased Reaction Biology Corporation, Malvern, Pa
T2 sequence (P54750 whole entry): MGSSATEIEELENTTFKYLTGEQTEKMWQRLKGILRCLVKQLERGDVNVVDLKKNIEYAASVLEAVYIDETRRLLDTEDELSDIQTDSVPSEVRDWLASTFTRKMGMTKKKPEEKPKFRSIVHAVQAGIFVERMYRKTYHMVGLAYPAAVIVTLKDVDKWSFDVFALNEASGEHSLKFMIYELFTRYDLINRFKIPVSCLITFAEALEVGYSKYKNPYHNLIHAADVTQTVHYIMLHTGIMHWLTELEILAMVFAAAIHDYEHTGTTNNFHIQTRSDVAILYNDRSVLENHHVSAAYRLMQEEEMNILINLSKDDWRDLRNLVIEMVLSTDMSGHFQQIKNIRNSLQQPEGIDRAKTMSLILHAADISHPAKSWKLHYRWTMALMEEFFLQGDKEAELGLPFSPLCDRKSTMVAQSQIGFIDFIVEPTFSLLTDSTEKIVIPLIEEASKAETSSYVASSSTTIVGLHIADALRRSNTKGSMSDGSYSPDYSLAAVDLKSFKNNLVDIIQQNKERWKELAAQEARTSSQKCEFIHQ
How it was run: as §1

[3] = target: T3, PDE9A2 (Homo sapiens, UniProt O76083); experiment: Phosphodiesterase enzyme screening assay, PDE9A2; conditions: read-out: Band (PDE9A2 IC50)
T3 construct: purchased Reaction Biology Corporation, Malvern, Pa
T3 sequence (O76083 1-533 isoform O76083-2): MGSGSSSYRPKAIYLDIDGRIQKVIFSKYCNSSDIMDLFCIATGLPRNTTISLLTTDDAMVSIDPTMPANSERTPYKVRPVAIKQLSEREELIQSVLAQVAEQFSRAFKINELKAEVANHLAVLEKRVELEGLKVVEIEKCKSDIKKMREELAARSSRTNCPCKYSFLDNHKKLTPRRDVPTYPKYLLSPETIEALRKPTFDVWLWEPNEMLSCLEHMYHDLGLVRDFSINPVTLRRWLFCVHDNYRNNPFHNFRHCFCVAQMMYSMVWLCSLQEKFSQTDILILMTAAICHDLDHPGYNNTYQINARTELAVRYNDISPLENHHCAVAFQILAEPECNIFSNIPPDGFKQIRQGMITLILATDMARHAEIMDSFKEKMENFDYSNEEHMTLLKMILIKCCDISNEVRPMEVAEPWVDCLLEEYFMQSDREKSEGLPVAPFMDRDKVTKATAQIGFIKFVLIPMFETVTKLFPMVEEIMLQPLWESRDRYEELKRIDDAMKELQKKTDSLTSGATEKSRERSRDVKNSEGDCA
How it was run: as §1

[4] = Table 1, ratio of IC50 values, value greater than 1 indicates greater selectivity for PDE9A2
[5] = Table 1, 10 concentrations, 4.0 μM cGMP substrate, 1 hour at R.T.
[6] = ratio of IC50 values PDE1B / PDE9A2, value greater than 1 = greater selectivity for PDE9A2
[7] = ratio of IC50 values PDE1A / PDE9A2, value greater than 1 = greater selectivity for PDE9A2
[8] = 4.0 μM cGMP substrate, 1 hour at R.T.
[9] = ratio of IC50 values, value greater than 1 indicates greater selectivity for PDE9A2
[10] = ratio of IC50 values, PDE1B versus PDE9A2, value greater than 1 = greater selectivity for PDE9A2
[11] = ratio of IC50 values, PDE1A versus PDE9A2, value greater than 1 = greater selectivity for PDE9A2
[12] = Table 3, 4.0 μM cGMP substrate, 1 hour at R.T.

T1 sequence (Q01064 whole entry): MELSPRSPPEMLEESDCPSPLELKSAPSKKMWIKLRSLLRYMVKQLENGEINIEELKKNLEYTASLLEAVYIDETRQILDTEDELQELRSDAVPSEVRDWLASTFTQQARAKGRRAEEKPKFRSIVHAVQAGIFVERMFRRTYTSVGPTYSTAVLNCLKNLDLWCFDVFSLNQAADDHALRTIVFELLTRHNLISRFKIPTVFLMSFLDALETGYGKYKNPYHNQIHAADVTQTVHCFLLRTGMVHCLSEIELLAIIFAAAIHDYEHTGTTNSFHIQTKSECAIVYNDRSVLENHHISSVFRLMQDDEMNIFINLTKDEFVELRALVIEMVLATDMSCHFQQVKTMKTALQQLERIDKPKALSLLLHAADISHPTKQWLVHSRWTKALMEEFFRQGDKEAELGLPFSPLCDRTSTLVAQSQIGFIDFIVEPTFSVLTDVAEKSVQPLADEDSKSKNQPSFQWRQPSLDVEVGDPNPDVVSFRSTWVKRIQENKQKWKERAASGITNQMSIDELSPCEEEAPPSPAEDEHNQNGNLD

Row | PDE1B selectivity (versus PDE9A2) [1, 4] | PDE1A selectivity (versus PDE9A2) [2, 4] | IC50 [3, 5] [µM] | Compound | further results
1 | 105 | 249 | < 1 | Cc1ccccc1CN1CC(C)C(c2nn3c(C4CCOCC4)ncc3c(=O)[nH]2)C1 (single isomer, unassigned; (+)) [(+)-2-((3,4-trans)-4-methyl-1-(2-methylbenzyl)pyrrolidin-3-yl)-7-(tetrahydro-2H-pyran-4-yl)imidazo[5,1-f][1,2,4]triazin-4(3H)-one] | –
2 | 1190 | 700 | < 1 | CC1CN(Cc2cccc(N3CCCC3)c2)CC1c1nn2c(C3CCOCC3)ncc2c(=O)[nH]1 (single isomer, unassigned; (+)) [(+)-2-((3,4-trans)-4-methyl-1-(3-(pyrrolidin-1-yl)benzyl)pyrrolidin-3-yl)-7-(tetrahydro-2H-pyran-4-yl)imidazo[5,1-f][1,2,4]triazin-4(3H)-one] | –
3 | 99 | 261 | < 1 | CC1CN(Cc2cccc(OC(F)(F)F)c2)CC1c1nn2c(C3CCOCC3)ncc2c(=O)[nH]1 (single isomer, unassigned; (+)) [(+)-2-((3,4-trans)-4-methyl-1-(3-(trifluoromethoxy)benzyl)pyrrolidin-3-yl)-7-(tetrahydro-2H-pyran-4-yl)imidazo[5,1-f][1,2,4]triazin-4(3H)-one] | –
4 | 86 | 203 | < 1 | CC1CN(Cc2cccc(C(F)(F)F)c2)CC1c1nn2c(C3CCOCC3)ncc2c(=O)[nH]1 (single isomer, unassigned; (+)) [(+)-2-((3,4-trans)-4-methyl-1-(3-(trifluoromethyl)benzyl)pyrrolidin-3-yl)-7-(tetrahydro-2H-pyran-4-yl)imidazo[5,1-f][1,2,4]triazin-4(3H)-one] | –
5 | 402 | 442 | < 1 | Cc1cccc(CN2CC(C)C(c3nn4c(C5CCOCC5)ncc4c(=O)[nH]3)C2)c1 (single isomer, unassigned; (+)) [(+)-2-((3,4-trans)-4-methyl-1-(3-methylbenzyl)pyrrolidin-3-yl)-7-(tetrahydro-2H-pyran-4-yl)imidazo[5,1-f][1,2,4]triazin-4(3H)-one] | –
6 | – | – | – | CC1CN(c2nccc(C(F)(F)F)n2)CC1c1nn2c(C3CCOCC3)ncc2c(=O)[nH]1 (single isomer, unassigned; (+)) [(+)-2-((3,4-trans)-4-methyl-1-(4-(trifluoromethyl)pyrimidin-2-yl)pyrrolidin-3-yl)-7-(tetrahydro-2H-pyran-4-yl)imidazo[5,1-f][1,2,4]triazin-4(3H)-one] | PDE1B selectivity (versus PDE9A2) [1, 6]: 1; PDE1A selectivity (versus PDE9A2) [2, 7]: 7; IC50 [3, 8]: < 1 µM
7 | – | – | – | CC1CN(Cc2ncn(C)n2)CC1c1nn2c(C3CCOCC3)ncc2c(=O)[nH]1 (single isomer, unassigned; (+)) [(+)-2-((3,4-trans)-4-methyl-1-((1-methyl-1H-1,2,4-triazol-3-yl)methyl)pyrrolidin-3-yl)-7-(tetrahydro-2H-pyran-4-yl)imidazo[5,1-f][1,2,4]triazin-4(3H)-one] | PDE1B selectivity (versus PDE9A2) [1, 9]: 266; PDE1A selectivity (versus PDE9A2) [2, 9]: 208; IC50 [3]: < 1 µM
8 | 356 | 181 | < 1 | CC1CN(Cc2nc3ccccc3n2C)CC1c1nn2c(C3CCOCC3)ncc2c(=O)[nH]1 (single isomer, unassigned; (+)) [(+)-2-((3,4-trans)-4-methyl-1-((1-methyl-1H-benzo[d]imidazol-2-yl)methyl)pyrrolidin-3-yl)-7-(tetrahydro-2H-pyran-4-yl)imidazo[5,1-f][1,2,4]triazin-4(3H)-one] | –
9 | – | – | – | CC1CN(Cc2nccn2C)CC1c1nn2c(C3CCOCC3)ncc2c(=O)[nH]1 (single isomer, unassigned; (+)) [(+)-2-((3,4-trans)-4-methyl-1-((1-methyl-1H-imidazol-2-yl)methyl)pyrrolidin-3-yl)-7-(tetrahydro-2H-pyran-4-yl)imidazo[5,1-f][1,2,4]triazin-4(3H)-one] | PDE1B selectivity (versus PDE9A2) [1, 9]: 107; PDE1A selectivity (versus PDE9A2) [2, 9]: 197; IC50 [3]: < 1 µM
10 | – | – | – | CC1CN(Cc2ccn(C)n2)CC1c1nn2c(C3CCOCC3)ncc2c(=O)[nH]1 (single isomer, unassigned; (+)) [(+)-2-((3,4-trans)-4-methyl-1-((1-methyl-1H-pyrazol-3-yl)methyl)pyrrolidin-3-yl)-7-(tetrahydro-2H-pyran-4-yl)imidazo[5,1-f][1,2,4]triazin-4(3H)-one] | PDE1B selectivity (versus PDE9A2) [1, 10]: 721; PDE1A selectivity (versus PDE9A2) [2, 11]: 628; IC50 [3, 12]: < 1 µM
11 | – | – | – | CC1CN(Cc2cnn(C)c2)CC1c1nn2c(C3CCOCC3)ncc2c(=O)[nH]1 (single isomer, unassigned; (+)) [(+)-2-((3,4-trans)-4-methyl-1-((1-methyl-1H-pyrazol-4-yl)methyl)pyrrolidin-3-yl)-7-(tetrahydro-2H-pyran-4-yl)imidazo[5,1-f][1,2,4]triazin-4(3H)-one] | PDE1B selectivity (versus PDE9A2) [1, 10]: 434; PDE1A selectivity (versus PDE9A2) [2, 11]: 247; IC50 [3, 12]: < 1 µM
12 | – | – | – | CC1CN(Cc2ccnn2C)CC1c1nn2c(C3CCOCC3)ncc2c(=O)[nH]1 (single isomer, unassigned; (+)) [(+)-2-((3,4-trans)-4-methyl-1-((1-methyl-1H-pyrazol-5-yl)methyl)pyrrolidin-3-yl)-7-(tetrahydro-2H-pyran-4-yl)imidazo[5,1-f][1,2,4]triazin-4(3H)-one] | PDE1B selectivity (versus PDE9A2) [1, 10]: 370; PDE1A selectivity (versus PDE9A2) [2, 11]: 243; IC50 [3, 12]: < 1 µM
13 | – | – | – | Cc1ncccc1CN1CC(C)C(c2nn3c(C4CCOCC4)ncc3c(=O)[nH]2)C1 (single isomer, unassigned; (+)) [(+)-2-((3,4-trans)-4-methyl-1-((2-methylpyridin-3-yl)methyl)pyrrolidin-3-yl)-7-(tetrahydro-2H-pyran-4-yl)imidazo[5,1-f][1,2,4]triazin-4(3H)-one] | PDE1B selectivity (versus PDE9A2) [1, 6]: 201; PDE1A selectivity (versus PDE9A2) [2, 7]: 139; IC50 [3, 8]: < 1 µM
14 | – | – | – | Cc1cc(CN2CC(C)C(c3nn4c(C5CCOCC5)ncc4c(=O)[nH]3)C2)ccn1 (single isomer, unassigned; (+)) [(+)-2-((3,4-trans)-4-methyl-1-((2-methylpyridin-4-yl)methyl)pyrrolidin-3-yl)-7-(tetrahydro-2H-pyran-4-yl)imidazo[5,1-f][1,2,4]triazin-4(3H)-one] | PDE1B selectivity (versus PDE9A2) [1, 6]: 421; PDE1A selectivity (versus PDE9A2) [2, 7]: 232; IC50 [3, 8]: < 1 µM
15 | 400 | 184 | < 1 | Cc1nccc(CN2CC(C)C(c3nn4c(C5CCOCC5)ncc4c(=O)[nH]3)C2)n1 (single isomer, unassigned; (+)) [(+)-2-((3,4-trans)-4-methyl-1-((2-methylpyrimidin-4-yl)methyl)pyrrolidin-3-yl)-7-(tetrahydro-2H-pyran-4-yl)imidazo[5,1-f][1,2,4]triazin-4(3H)-one] | –
16 | 60 | 80 | < 1 | Cc1ncc(CN2CC(C)C(c3nn4c(C5CCOCC5)ncc4c(=O)[nH]3)C2)cn1 (single isomer, unassigned; (+)) [(+)-2-((3,4-trans)-4-methyl-1-((2-methylpyrimidin-5-yl)methyl)pyrrolidin-3-yl)-7-(tetrahydro-2H-pyran-4-yl)imidazo[5,1-f][1,2,4]triazin-4(3H)-one] | –
17 | – | – | – | Cc1nc(CN2CC(C)C(c3nn4c(C5CCOCC5)ncc4c(=O)[nH]3)C2)cs1 (single isomer, unassigned; (+)) [(+)-2-((3,4-trans)-4-methyl-1-((2-methylthiazol-4-yl)methyl)pyrrolidin-3-yl)-7-(tetrahydro-2H-pyran-4-yl)imidazo[5,1-f][1,2,4]triazin-4(3H)-one] | PDE1B selectivity (versus PDE9A2) [1, 9]: 19; PDE1A selectivity (versus PDE9A2) [2, 9]: 12; IC50 [3]: < 1 µM
18 | 243 | 129 | < 1 | Cc1ncc(CN2CC(C)C(c3nn4c(C5CCOCC5)ncc4c(=O)[nH]3)C2)s1 (single isomer, unassigned; (+)) [(+)-2-((3,4-trans)-4-methyl-1-((2-methylthiazol-5-yl)methyl)pyrrolidin-3-yl)-7-(tetrahydro-2H-pyran-4-yl)imidazo[5,1-f][1,2,4]triazin-4(3H)-one] | –
19 | 940 | 424 | < 1 | CC1CN(Cc2ccc[nH]c2=O)CC1c1nn2c(C3CCOCC3)ncc2c(=O)[nH]1 (single isomer, unassigned; (+)) [(+)-2-((3,4-trans)-4-methyl-1-((2-oxo-1,2-dihydropyridin-3-yl)methyl)pyrrolidin-3-yl)-7-(tetrahydro-2H-pyran-4-yl)imidazo[5,1-f][1,2,4]triazin-4(3H)-one] | –
20 | – | – | – | CC1CN(Cc2ncccc2C(F)(F)F)CC1c1nn2c(C3CCOCC3)ncc2c(=O)[nH]1 (single isomer, unassigned; (+)) [(+)-2-((3,4-trans)-4-methyl-1-((3-(trifluoromethyl)pyridin-2-yl)methyl)pyrrolidin-3-yl)-7-(tetrahydro-2H-pyran-4-yl)imidazo[5,1-f][1,2,4]triazin-4(3H)-one] | PDE1B selectivity (versus PDE9A2) [1, 10]: 58; PDE1A selectivity (versus PDE9A2) [2, 11]: 123; IC50 [3, 12]: < 1 µM
